Measurements from patent publication US20240270762A1, “PENICILLIN-BINDING PROTEIN INHIBITORS” (priority 2021, published 2024).
≈ marks a conversion by molar mass, not a printed value.

What was measured:
[1] = biological target: T1, PBP3 from Escherichia coli (K-12) (Escherichia coli, UniProt P0AD68); assay: Bocillin-FL fluorescence polarization competition binding, E. coli PBP3
T1 construct: made in house
In short: (§1)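 Purified PBP was preincubated with inhibitor (E. coli PBP3 1.5 μM, 30 min; P. aeruginosa PBP3 0.75 μM, A. baumannii PBP3 0.2 μM and PBP1a 1 μM, 15 min), then Bocillin-FL (0.1 μM; 0.05 μM for PBP1a) added and FP read up to 60 min. EC50 = 50% loss of bound probe.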

[2] = biological target: T2, PBP3 from Pseudomonas aeruginosa (PAO1) (Pseudomonas aeruginosa, UniProt G3XD46); assay: Bocillin-FL fluorescence polarization competition binding, P. aeruginosa PBP3; settings: Binding affinity to P. aeruginosa PBP3; fluorescence polarization competition binding assay using Bocillin-FL; read-out: P. aeruginosa PBP3 Potency
T2 construct: made in house
In short: as §1

P. aeruginosa ATCC 27853 = assay: microbe, parasite or virus in culture; format: cell-based; settings: Pseudomonas aeruginosa, ATCC27853, read-out: Minimum inhibitory concentration, P. aeruginosa ATCC 27853
P. aeruginosa CDC-0054 = assay: microbe, parasite or virus in culture; format: cell-based; settings: Pseudomonas aeruginosa, CDC0054, read-out: Minimum inhibitory concentration, P. aeruginosa CDC-0054
P. aeruginosa CDC-0090 = assay: microbe, parasite or virus in culture; format: cell-based; settings: Pseudomonas aeruginosa, CDC0090, read-out: Minimum inhibitory concentration, P. aeruginosa CDC-0090
P. aeruginosa CDC-0095 = assay: microbe, parasite or virus in culture; format: cell-based; settings: Pseudomonas aeruginosa, CDC0095, read-out: Minimum inhibitory concentration, P. aeruginosa CDC-0095
A. baumannii CDC-0033 = assay: microbe, parasite or virus in culture; format: cell-based; settings: Acinetobacter baumannii, CDC0033, read-out: MIC, A. baumannii CDC-0033
A. baumannii CDC-0083 = assay: microbe, parasite or virus in culture; format: cell-based; settings: Acinetobacter baumannii, CDC0083, read-out: MIC, A. baumannii CDC-0083
[3] = test system: B. thailandensis ATCC 700388; assay: microbe, parasite or virus in culture; format: cell-based; settings: Burkholderia thailandensis, ATCC700388, read-out: Minimum inhibitory concentration (MIC), B. thailandensis ATCC 700388
[4] = test system: B. humptydooensis ATCC BAA-2767; assay: microbe, parasite or virus in culture; format: cell-based; settings: Burkholderia humptydooensis, ATCCBAA2767, read-out: Minimum inhibitory concentration (MIC), B. humptydooensis ATCC BAA-2767
P. aeruginosa CDC-0110 = assay: microbe, parasite or virus in culture; format: cell-based; settings: Pseudomonas aeruginosa, CDC0110, read-out: Minimum inhibitory concentration, P. aeruginosa CDC-0110
[5] = test system: N. gonorrhoeae ATCC 49226; assay: Liquid broth MIC in Fastidious broth; settings: Neisseria gonorrhoeae, ATCC49226, read-out: Minimum Inhibitory Concentration, ATCC 49226
N. gonorrhoeae WHO G = assay: Liquid broth MIC in Fastidious broth; settings: Neisseria gonorrhoeae, read-out: Minimum Inhibitory Concentration, WHO G
N. gonorrhoeae WHO X = assay: Liquid broth MIC in Fastidious broth; settings: Neisseria gonorrhoeae, read-out: Minimum Inhibitory Concentration, WHO X
N. gonorrhoeae CDC-0197 = assay: Liquid broth MIC in Fastidious broth; settings: Neisseria gonorrhoeae, CDC0197, read-out: Minimum Inhibitory Concentration, CDC-0197

T1 sequence (P0AD68 1-577): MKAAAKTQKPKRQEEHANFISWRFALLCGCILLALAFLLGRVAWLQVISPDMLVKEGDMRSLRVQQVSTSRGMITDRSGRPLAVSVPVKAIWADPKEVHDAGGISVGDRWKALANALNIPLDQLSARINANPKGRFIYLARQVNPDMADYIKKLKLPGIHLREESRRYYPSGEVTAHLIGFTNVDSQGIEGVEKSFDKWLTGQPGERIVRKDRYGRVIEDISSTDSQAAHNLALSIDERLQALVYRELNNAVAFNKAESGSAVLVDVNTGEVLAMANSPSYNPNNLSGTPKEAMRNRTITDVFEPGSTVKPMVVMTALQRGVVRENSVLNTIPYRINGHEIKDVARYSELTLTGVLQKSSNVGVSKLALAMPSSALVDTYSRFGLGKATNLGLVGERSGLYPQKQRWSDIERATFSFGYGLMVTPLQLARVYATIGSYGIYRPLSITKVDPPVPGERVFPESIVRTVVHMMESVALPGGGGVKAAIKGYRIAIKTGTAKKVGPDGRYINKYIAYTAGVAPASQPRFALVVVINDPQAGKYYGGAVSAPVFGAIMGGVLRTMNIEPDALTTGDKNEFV
T2 sequence (G3XD46 whole entry): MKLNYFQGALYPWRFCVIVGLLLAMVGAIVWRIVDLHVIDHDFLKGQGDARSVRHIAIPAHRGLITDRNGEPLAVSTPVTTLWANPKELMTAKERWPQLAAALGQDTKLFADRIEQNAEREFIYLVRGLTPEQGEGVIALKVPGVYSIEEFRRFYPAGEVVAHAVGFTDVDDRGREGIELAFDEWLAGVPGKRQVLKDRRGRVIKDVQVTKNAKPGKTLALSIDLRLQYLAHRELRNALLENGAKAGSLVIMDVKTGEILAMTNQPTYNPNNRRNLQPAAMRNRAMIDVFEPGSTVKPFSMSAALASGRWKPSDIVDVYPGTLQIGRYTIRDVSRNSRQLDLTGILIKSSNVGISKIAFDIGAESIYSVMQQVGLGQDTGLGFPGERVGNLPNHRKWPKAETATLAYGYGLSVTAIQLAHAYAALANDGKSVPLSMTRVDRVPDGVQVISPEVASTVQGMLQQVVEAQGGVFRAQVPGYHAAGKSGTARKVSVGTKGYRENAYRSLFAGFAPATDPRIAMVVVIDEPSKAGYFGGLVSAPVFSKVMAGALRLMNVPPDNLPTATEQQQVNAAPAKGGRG

O=C(NCCCN1CCN(C(=O)N[C@H](C(=O)N[C@H]2Cc3ccc(F)c(C(=O)O)c3OB2O)c2cc(F)c(O)c(O)c2Cl)C1=O)c1ccccc1 [Example 252, (R)-3-((S)-2-(3-(3-benzamidopropyl)-2-oxoimidazolidine-1-carboxamido)-2-(2-chloro-5-fluoro-3,4-dihydroxyphenyl)acetamido)-7-fluoro-2-hydroxy-3,4-dihydro-2H-benzo[e][1,2]oxaborinine-8-carboxylic acid]
EC50 [1]: > 250 µM | IC50 [2]: > 250 µM | MIC (P. aeruginosa ATCC 27853): > 128 µg/mL | MIC (P. aeruginosa CDC-0054): > 128 µg/mL | MIC (P. aeruginosa CDC-0090): > 128 µg/mL | MIC (P. aeruginosa CDC-0095): > 128 µg/mL | MIC (A. baumannii CDC-0033): > 128 µg/mL | MIC (A. baumannii CDC-0083): > 128 µg/mL | MIC [3]: > 128 µg/mL | MIC [4]: > 128 µg/mL | MIC (P. aeruginosa CDC-0110): > 128 µg/mL | MIC [5]: > 64 µg/mL | MIC (N. gonorrhoeae WHO G): > 64 µg/mL | MIC (N. gonorrhoeae WHO X): > 64 µg/mL | MIC (N. gonorrhoeae CDC-0197): > 64 µg/mL

O=C(NCCCN1CCN(C(=O)N[C@H](C(=O)N[C@H]2Cc3ccc(F)c(C(=O)O)c3OB2O)c2cc(F)c(O)c(O)c2Cl)C1=O)c1cccc(O)c1 [Example 254, (R)-3-((S)-2-(2-chloro-5-fluoro-3,4-dihydroxyphenyl)-2-(3-(3-(3-hydroxybenzamido)propyl)-2-oxoimidazolidine-1-carboxamido)acetamido)-7-fluoro-2-hydroxy-3,4-dihydro-2H-benzo[e][1,2]oxaborinine-8-carboxylic acid]
EC50 [1]: 50 to 250 µM | IC50 [2]: 50 to 250 µM | MIC (P. aeruginosa ATCC 27853): > 128 µg/mL | MIC (P. aeruginosa CDC-0054): > 128 µg/mL | MIC (P. aeruginosa CDC-0090): > 128 µg/mL | MIC (P. aeruginosa CDC-0095): > 128 µg/mL | MIC (A. baumannii CDC-0033): 32 to 64 µg/mL (≈ 43.7 to 87.4 µM) | MIC (A. baumannii CDC-0083): > 128 µg/mL | MIC [3]: > 128 µg/mL | MIC [4]: > 128 µg/mL | MIC (P. aeruginosa CDC-0110): > 128 µg/mL | MIC [5]: > 64 µg/mL | MIC (N. gonorrhoeae WHO G): > 64 µg/mL | MIC (N. gonorrhoeae WHO X): > 64 µg/mL | MIC (N. gonorrhoeae CDC-0197): > 64 µg/mL

O=C(NCCCN1CCN(C(=O)N[C@@H](C(=O)N[C@H]2Cc3ccc(F)c(C(=O)O)c3OB2O)c2cc(F)c(O)c(O)c2Cl)C1=O)c1cccc(O)c1 [Example 255, (R)-3-((R)-2-(2-chloro-5-fluoro-3,4-dihydroxyphenyl)-2-(3-(3-(3-hydroxybenzamido)propyl)-2-oxoimidazolidine-1-carboxamido)acetamido)-7-fluoro-2-hydroxy-3,4-dihydro-2H-benzo[e][1,2]oxaborinine-8-carboxylic acid]
EC50 [1]: < 10 µM | IC50 [2]: < 10 µM | MIC (P. aeruginosa ATCC 27853): < 1 µg/mL | MIC (P. aeruginosa CDC-0054): < 1 µg/mL | MIC (P. aeruginosa CDC-0090): < 1 µg/mL | MIC (P. aeruginosa CDC-0095): 2 to 4 µg/mL (≈ 2.73 to 5.47 µM) | MIC (A. baumannii CDC-0033): 2 to 4 µg/mL (≈ 2.73 to 5.47 µM) | MIC (A. baumannii CDC-0083): < 1 µg/mL | MIC [3]: < 1 µg/mL | MIC [4]: < 1 µg/mL | MIC (P. aeruginosa CDC-0110): < 1 µg/mL | MIC [5]: 16 to 32 µg/mL (≈ 21.9 to 43.7 µM) | MIC (N. gonorrhoeae WHO G): 4 to 8 µg/mL (≈ 5.47 to 10.9 µM) | MIC (N. gonorrhoeae WHO X): > 64 µg/mL | MIC (N. gonorrhoeae CDC-0197): 16 to 32 µg/mL (≈ 21.9 to 43.7 µM)

O=C(NCCCN1CCN(C(=O)NC(C(=O)N[C@H]2Cc3ccc(F)c(C(=O)O)c3OB2O)c2cc(F)c(O)c(O)c2Cl)C1=O)c1ccncc1 (stereo partly drawn) [Example 256, (3R)-3-(2-(2-chloro-5-fluoro-3,4-dihydroxyphenyl)-2-(3-(3-(isonicotinamido)propyl)-2-oxoimidazolidine-1-carboxamido)acetamido)-7-fluoro-2-hydroxy-3,4-dihydro-2H-benzo[e][1,2]oxaborinine-8-carboxylic acid]
EC50 [1]: 10 to 50 µM | IC50 [2]: < 10 µM | MIC (P. aeruginosa ATCC 27853): 2 to 4 µg/mL (≈ 2.79 to 5.58 µM) | MIC (P. aeruginosa CDC-0054): 2 to 4 µg/mL (≈ 2.79 to 5.58 µM) | MIC (P. aeruginosa CDC-0090): 2 to 4 µg/mL (≈ 2.79 to 5.58 µM) | MIC (P. aeruginosa CDC-0095): 2 to 4 µg/mL (≈ 2.79 to 5.58 µM) | MIC (A. baumannii CDC-0033): 2 to 4 µg/mL (≈ 2.79 to 5.58 µM) | MIC (A. baumannii CDC-0083): < 1 µg/mL | MIC [3]: < 1 µg/mL | MIC [4]: < 1 µg/mL | MIC (P. aeruginosa CDC-0110): 2 to 4 µg/mL (≈ 2.79 to 5.58 µM) | MIC [5]: 16 to 32 µg/mL (≈ 22.3 to 44.6 µM) | MIC (N. gonorrhoeae WHO G): 16 to 32 µg/mL (≈ 22.3 to 44.6 µM) | MIC (N. gonorrhoeae WHO X): > 64 µg/mL | MIC (N. gonorrhoeae CDC-0197): > 64 µg/mL

O=C(NCCCN1CCN(C(=O)NC(C(=O)N[C@H]2Cc3ccc(F)c(C(=O)O)c3OB2O)c2cc(F)c(O)c(O)c2Cl)C1=O)c1nccs1 (stereo partly drawn) [Example 257, (3R)-3-(2-(2-chloro-5-fluoro-3,4-dihydroxyphenyl)-2-(2-oxo-3-(3-(thiazole-2-carboxamido)propyl)imidazolidine-1-carboxamido)acetamido)-7-fluoro-2-hydroxy-3,4-dihydro-2H-benzo[e][1,2]oxaborinine-8-carboxylic acid]
EC50 [1]: 10 to 50 µM | IC50 [2]: < 10 µM | MIC (P. aeruginosa ATCC 27853): 2 to 4 µg/mL (≈ 2.77 to 5.53 µM) | MIC (P. aeruginosa CDC-0054): 2 to 4 µg/mL (≈ 2.77 to 5.53 µM) | MIC (P. aeruginosa CDC-0090): 2 to 4 µg/mL (≈ 2.77 to 5.53 µM) | MIC (P. aeruginosa CDC-0095): 2 to 4 µg/mL (≈ 2.77 to 5.53 µM) | MIC (A. baumannii CDC-0033): 2 to 4 µg/mL (≈ 2.77 to 5.53 µM) | MIC (A. baumannii CDC-0083): < 1 µg/mL | MIC [3]: < 1 µg/mL | MIC [4]: 2 to 4 µg/mL (≈ 2.77 to 5.53 µM) | MIC (P. aeruginosa CDC-0110): 2 to 4 µg/mL (≈ 2.77 to 5.53 µM) | MIC [5]: > 64 µg/mL | MIC (N. gonorrhoeae WHO G): > 64 µg/mL | MIC (N. gonorrhoeae WHO X): > 64 µg/mL | MIC (N. gonorrhoeae CDC-0197): > 64 µg/mL
